In patent publication US11485751B2, “Apramycin derivatives” (WAYNE STATE UNIVERSITY, priority 2017, dated 2022):
Values after ≈ are worked out from the molar mass of the structure shown.

Columns and labels:
[1] = test system: Engineered E. coli pH425 rmtB; assay: Activity against G1405-methylated 16S-rRNA, E. coli pH425 rmtB; type: cell-based
In short: (§1)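 Susceptibility was measured as minimal inhibitory concentration using a standardized broth microdilution protocol (CLSI document M07-A10).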

[2] = test system: AG039 MRSA AAC(6′)-I ANT(4′)-I; assay: Antibacterial activity, clinical isolate AG039; type: cell-based
In short: (§2)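 Compounds are serially diluted in liquid medium in microplates, bacteria are added, and the lowest concentration preventing growth is recorded as the MIC (CLSI procedure).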

AG163 E. coli APH(3′)-I = assay: Antibacterial activity, clinical isolate AG163; type: cell-based
In short: as §2

[3] = test system: K. pneum. AG269 AAC(3)-II AAC(6′)-I rmtB; assay: Activity against G1405-methylated 16S-rRNA, clinical isolate AG269; type: cell-based
In short: as §1

[4] = test system: human cytosolic ribosomes; assay: in-vitro translation assay, human cytosolic ribosomes; type: biochemical
In short: (§3)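 Translation inhibition is measured in vitro with isolated ribosomes, and IC50 derived. The human cytosolic values actually use rabbit reticulocyte ribosomes, and the mitochondrial values use human chimeric ribosomes.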

[5] = test system: human mitochondrial ribosomes; assay: in-vitro translation assay, human mitochondrial (human chimeric) ribosomes; type: biochemical
In short: as §3

[6] = test system: AG290, Enterobacter cloacae; assay: MIC reference strain AG290; type: cell-based; details: Enterobacter cloacae; reference strain; read-out: MIC AG290 E. cloacae
In short: (§4)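 Compounds serially diluted in broth, bacteria added, growth inhibition scored; the lowest inhibitory concentration is taken as MIC, following CLSI procedures.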

AG032 P. aer. APH(3′)-II = assay: Antibacterial activity, clinical isolate AG032; type: cell-based; parameters: unit not given here
In short: as §2

[7] = test system: Enterob. AG302 AAC(3)-II AAC(6′)-I rmtC; assay: Activity against G1405-methylated 16S-rRNA, clinical isolate AG302; type: cell-based
In short: as §1

[8] = test system: AG220, Pseudomonas aeruginosa ATCC27853; assay: MIC reference strain AG220; type: cell-based; details: Pseudomonas aeruginosa, ATCC27853, reference strain ATCC27853; read-out: MIC AG220 P. aeruginosa
In short: as §4

[9] = test system: Engineered E. coli pH426 rmtC; assay: Activity against G1405-methylated 16S-rRNA, E. coli pH426 rmtC; type: cell-based
In short: as §1

[10] = test system: Engineered E. coli pH430 WT; assay: Activity, engineered E. coli pH430 WT; type: cell-based; details: wild type
In short: as §1

AG173 E. coli AAC(3)-IV = assay: Antibacterial activity, clinical isolate AG173; type: cell-based
In short: as §2

[11] = test system: Engineered E. coli AG103 armA; assay: Activity against G1405-methylated 16S-rRNA, E. coli AG103 armA; type: cell-based
In short: as §1

[12] = test system: clinical isolates carrying APH(3′)-II; assay: MIC broth microdilution, APH(3′)-II; type: cell-based; details: clinical isolates, IMM Univ. Zurich; APH(3′)-II; read-out: MIC APH(3′)-II
[13] = test system: AG033 P. aer. APH(3′)-II AAC(6′)-I; assay: Antibacterial activity, clinical isolate AG033; type: cell-based; parameters: unit not given here
In short: as §2

bacterial ribosomes = assay: in-vitro translation assay, bacterial ribosomes; type: biochemical
In short: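 Inhibitory potency was determined as IC50 in in-vitro translation systems based on bacterial ribosomes, human chimeric (mitochondrial-type) ribosomes or rabbit reticulocyte (cytosolic) ribosomes.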

AG038 MRSA = assay: Antibacterial activity, clinical isolate AG038; type: cell-based; parameters: unit not given here
In short: as §2

[14] = test system: Engineered E. coli pH427 rmtF; assay: Activity against G1405-methylated 16S-rRNA, E. coli pH427 rmtF; type: cell-based
In short: as §1

[15] = test system: clinical isolates carrying APH(3′)-III; assay: MIC broth microdilution, APH(3′)-III; type: cell-based; details: IMM Univ. Zurich
[16] = test system: AG225, Acinetobacter baumannii pittii; assay: MIC reference strain AG225; type: cell-based; details: Acinetobacter baumannii, reference strain; read-out: MIC AG225 A. baumannii
In short: as §4

AG003 E. coli AAC(3)-II = assay: Antibacterial activity, clinical isolate AG003; type: cell-based
In short: as §2

[17] = test system: Engineered E. coli pH424 armA; assay: Activity against G1405-methylated 16S-rRNA, E. coli pH424 armA; type: cell-based
In short: as §1

AG055 E. coli WT = assay: Antibacterial activity, clinical isolate AG055; type: cell-based; parameters: unit not given here
In short: as §2

[18] = test system: clinical isolates carrying APH(3′)-VI; assay: MIC broth microdilution, APH(3′)-VI; type: cell-based; details: IMM Univ. Zurich
[19] = test system: AG042 MRSA AAC(6′)-I ANT(4′)-I APH(2′); assay: Antibacterial activity, clinical isolate AG042; type: cell-based; parameters: unit not given here
In short: as §2

[20] = test system: AG215, Klebsiella pneumonia; assay: MIC reference strain AG215; type: cell-based; details: Klebsiella pneumoniae, reference strain; read-out: MIC AG215 K. pneumonia
In short: as §4

[21] = test system: clinical isolates carrying APH(3′)-I; assay: MIC broth microdilution, APH(3′)-I; type: cell-based; details: IMM Univ. Zurich
[22] = test system: Enterobacteriaceae, Pseudomonas, Acinetobacter, and Mycobacteria; assay: Antibacterial potency, Tables 4+5 overall; type: cell-based; details: against Enterobacteriaceae, Mycobacteria (Tables 4+5)
Text: Minimal inhibitory concentrations (MIC) have been determined by broth microdilution assays (CLSI. Methods for Dilution Antimicrobial Susceptibility Tests for Bacteria That Grow Aerobically; Approved Standard—Tenth Edition. CLSI document M07-A10. Wayne, Pa.: Clinical and Laboratory Standards Institute; 2015.).

[23] = test system: AG212, Escherichia coli ATCC25922; assay: MIC reference strain AG212; type: cell-based; details: Escherichia coli; reference strain ATCC25922; read-out: MIC AG212 E. coli
In short: as §4

AG001 E. coli WT = assay: Antibacterial activity, clinical isolate AG001; type: cell-based; parameters: unit not given here
In short: as §2

AG031 P. aer. APH(3′)-II = assay: Antibacterial activity, clinical isolate AG031; type: cell-based; parameters: unit not given here
In short: as §2

[24] = test system: E. coli AG153 AAC(3)-II APH(3′)-II rmtB; assay: Activity against G1405-methylated 16S-rRNA, clinical isolate AG153; type: cell-based
In short: as §1

[25] = test system: A baum. AG227 APH(3′)-I armA; assay: Activity against G1405-methylated 16S-rRNA, clinical isolate AG227; type: cell-based
In short: as §1

[26] = test system: clinical isolates carrying AAC(3)-IV; assay: MIC broth microdilution, AAC(3)-IV; type: cell-based; details: clinical isolates, IMM Univ. Zurich; AAC(3)-IV; read-out: MIC AAC(3)-IV
In short: (§5)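 Clinical isolates supplied by the Zurich Institute of Medical Microbiology were tested for MIC (μg/ml) using CLSI M07-A10 broth microdilution.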

N. gonorrhoeae = assay: Disk diffusion N. gonorrhoeae; type: cell-based
isolates carrying apmA = assay: MIC broth microdilution, apmA; type: cell-based; details: apmA resistance gene
In short: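 Clinical isolates carrying apmA, from the University of Zurich Institute of Medical Microbiology, were tested by broth microdilution following CLSI M07-A10; values are MICs in μg/ml.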

WT clinical isolates = assay: MIC broth microdilution, WT; type: cell-based; details: read-out: MIC WT, clinical isolates, IMM Univ. Zurich; wild type
In short: as §5

ATCC19977 M. abcessus = assay: MIC reference strain ATCC19977; type: cell-based; details: reference strain; read-out: MIC ATCC19977 M. abcessus
In short: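 Susceptibility was tested per CLSI aerobic dilution protocol using microbroth format, with the MIC taken as the end point.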

SMILES	Activity E. coli pH425 rmtB [1]	Antibacterial activity AG039 MRSA AAC(6′)-I ANT(4′)-I [2]	Antibacterial activity AG163 E. coli APH(3′)-I (AG163 E. coli APH(3′)-I)	Activity K. pneum. AG269 AAC(3)-II AAC(6′)-I rmtB [3]	IC50 [4]	IC50 [5]	MIC [6]	Antibacterial activity AG032 P. aer. APH(3′)-II (AG032 P. aer. APH(3′)-II)	Activity Enterob. AG302 AAC(3)-II AAC(6′)-I rmtC [7]	MIC [8]	Activity E. coli pH426 rmtC [9]	Activity E. coli pH430 WT [10]	Antibacterial activity AG173 E. coli AAC(3)-IV (AG173 E. coli AAC(3)-IV)	Activity E. coli AG103 armA [11]	Antibacterial activity AG033 P. aer. APH(3′)-II AAC(6′)-I [13]	IC50 (bacterial ribosomes)	Antibacterial activity AG038 MRSA (AG038 MRSA)	Activity E. coli pH427 rmtF [14]	MIC [15]	MIC [16]	other results
CNC1C(OC2OC(CO)C(N)C(O)C2O)OC2CC(N)C(OC3C(N)CC(N)C(O)C3OC3OC(CN)C(OCCN)C3O)OC2C1O [DC185, 5-O-β-[5-Amino-3-O-(2-aminoethyl)-5-deoxy-D-ribofuranosyl] apramycin]	2	1	2	1	26 µM	34 µM	1 µg/mL	2	1	1 to 2 µg/mL	2	1	4	0.5-1	2	0.03 µM	1	2	0.25 µg/mL (≈ 0.35 µM)	2 µg/mL	MIC [12]: 1 µg/mL (≈ 1.4 µM); Antibacterial activity AG003 E. coli AAC(3)-II (AG003 E. coli AAC(3)-II): 1-2; Activity E. coli pH424 armA [17]: 2; Antibacterial activity AG055 E. coli WT (AG055 E. coli WT): 2; MIC [18]: 2 µg/mL (≈ 2.8 µM); Antibacterial activity AG042 MRSA AAC(6′)-I ANT(4′)-I APH(2′) [19]: 1; MIC [20]: 0.5 to 1 µg/mL; MIC [21]: 1 µg/mL (≈ 1.4 µM); antibacterial potency [22]: increased antibacterial potency; MIC [23]: 2 µg/mL; Antibacterial activity AG001 E. coli WT (AG001 E. coli WT): 2; Antibacterial activity AG031 P. aer. APH(3′)-II (AG031 P. aer. APH(3′)-II): 2; Activity E. coli AG153 AAC(3)-II APH(3′)-II rmtB [24]: 4; Activity A baum. AG227 APH(3′)-I armA [25]: 2; MIC [26]: > 32 µg/mL
CNC1C(O[C@H]2OC(CO)[C@@H](N)C(O)C2O)O[C@H]2CC(N)[C@@H](O[C@@H]3C(N)C[C@@H](N)C(O)C3O)OC2C1O (stereo partly drawn) [apramycin]	4	8	4	2	71 µM	68 µM	4 µg/mL	8	4	4 µg/mL	4	2-4	≥128	1-2	16-32	0.08 µM	4-8	4	1 µg/mL (≈ 1.85 µM)	4 µg/mL	Disk diffusion 25 nmol N. gonorrhoeae (N. gonorrhoeae): <8 mm; Antibacterial activity AG003 E. coli AAC(3)-II (AG003 E. coli AAC(3)-II): 8; Activity E. coli pH424 armA [17]: 2-4; Antibacterial activity AG055 E. coli WT (AG055 E. coli WT): 8; MIC [18]: 4 µg/mL (≈ 7.41 µM); Antibacterial activity AG042 MRSA AAC(6′)-I ANT(4′)-I APH(2′) [19]: 8; MIC (isolates carrying apmA): 64 µg/mL (≈ 119 µM); MIC [20]: 2 µg/mL; MIC [21]: 1 to 2 µg/mL (≈ 1.85 to 3.71 µM); MIC (WT clinical isolates): 2 to 4 µg/mL (≈ 3.71 to 7.41 µM); MIC [23]: 4 µg/mL; Antibacterial activity AG001 E. coli WT (AG001 E. coli WT): 8-16; MIC (ATCC19977 M. abcessus): 2 µg/mL (≈ 3.71 µM); Antibacterial activity AG031 P. aer. APH(3′)-II (AG031 P. aer. APH(3′)-II): 8-16; Activity E. coli AG153 AAC(3)-II APH(3′)-II rmtB [24]: 8; Activity A baum. AG227 APH(3′)-I armA [25]: 2; MIC [26]: > 128 µg/mL
